In PMC7801053, “Diarylalkanoids as Potent Tyrosinase Inhibitors from the Stems of Semecarpus caudata” (Evidence-based Complementary and Alternative Medicine : eCAM, 2021):

Legend:
[1] = target: Tyrosinase (EC 1.14.18.1) from mushroom; assay: Tyrosinase inhibitory assay (L-DOPA substrate, absorbance at 475 nm); details: read-out: IC50 (tyrosinase inhibitory activity); mushroom tyrosinase 15 U/mL, L-DOPA 1.5 mM, phosphate buffer pH 6.8, preincubated 30 min, n = 3
Experimental: Optical values were measured on a Shimadzu UV-1800 spectrophotometer (Shimadzu Pte., Ltd., Singapore). […] Tyrosinase (EC 1.14.18.1) from mushroom (3933 U·mL^−1) and L-dihydroxyphenylalanine (L-DOPA) were obtained from Sigma-Aldrich (Sigma-Aldrich Pte., Ltd., Singapore). Other chemicals were of the highest grade available.
All pure compounds were dissolved in DMSO and tested at concentrations ranging from 0.01 to 100 μM. Assay mixtures in 0.1 M phosphate buffer pH 6.8 were prepared immediately before use, consisting of 100 μL of tyrosinase solution (15 U/mL) and 1900 μL of test solution. These mixtures were preincubated at room temperature for 30 min, followed by addition of 1000 μL of L-DOPA 1.5 mM in pH 6.8 phosphate buffer and incubated at room temperature for 7 min. The absorbances (A) at 475 nm were acquired on Shimadzu UV-1800 spectrophotometer. The inhibitory percentage (I%) was calculated according to the formula: I% = ((Acontrol − Asample)/Acontrol) × 100%. Data were represented as means ± standard error (n = 3). The IC50 values were determined by using GraphPad Prism software with multivariate nonlinear regression and R^2 > 0.9.

[2] = target: tyrosinase; details: read-out: tyrosinase inhibitory constant (Ki); ref Choi et al. [25]; cited from earlier work

SMILES: O=C(/C=C/C=C/c1ccc(O)cc1O)c1ccc(O)cc1O [Compound 1, 2E,4E-1,5-bis(2,4-dihydroxyphenyl)penta-2,4-dien-1-one]
- IC50 [1]: 0.033 µM

SMILES: O=C(/C=C/C=C/C=C/c1ccc(O)cc1O)c1ccc(O)cc1O [Compound 2, 2E,4E,6E-1,7-bis(2,4-dihydroxyphenyl)hepta-2,4,6-trien-1-one]
- IC50 [1]: 0.11 µM

SMILES: COC1=CC(=O)C=C(OC)C1=O [Compound 3, 2,6-dimethoxybenzoquinone]
- IC50 [1]: > 100 µM

SMILES: O=C(O)/C=C/c1ccc(O)cc1 [Compound 4, p-coumaric acid]
- IC50 [1]: 2.35 µM

SMILES: CC(=O)/C=C/c1ccc(O)c(O)c1 [Compound 6, trans-4-(3,4-dihydroxyphenyl)but-3-en-2-one]
- IC50 [1]: 27 µM

SMILES: COc1cc(/C=C/C(=O)O)ccc1O [Compound 7, ferulic acid]
- IC50 [1]: > 100 µM

SMILES: O=C(/C=C/c1ccc(O)cc1O)c1ccc(O)cc1O [Compound 8, 2,4,2′,4′-Tetrahydroxychalcone]
- IC50 [1]: 0.016 µM

SMILES: O=c1[nH]cnc2nc[nH]c12 [Hypoxanthine]
- Ki [2]: > 1000 µM
